The values that follow are results of earlier work, collected in patent US20080200434A1, “Chemical Target-Binding Compositions” (priority 2006, published 2008).

For data set [1] the following is noted: aqueous association with glucose; Lorand and Edwards 1959.
For data set [2] the following is noted: chronic exposure (Hubbard, S. A. 1998).

On to `OB(O)c1ccccc1` [phenylboronic acid], for which the Kd in data set [1] was 9.1 mM.
Regarding `OB(O)O` [boric acid], the “no observed adverse effect level” value in data set [2] is 9-43 mg boron/kg/day.
